Reference: the supplement of paper PMC11061612

Tests used:
Assay in all cases: combination Emax (second highest fraction inhibited in the dose matrix, 72 h); higher = more inhibition; extreme values may be limits of the assay
[1] = tested on: A673 (Ewing's Sarcoma)
Outline: (§1)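 Bliss excess equals the observed combination effect minus the expected value EA + EB − EA·EB, where EA and EB are the effects of each agent alone. Combination Emax is the second-highest inhibition within the matrix. Inhibition was scaled from CellTiter-Glo 2.0 luminescence, with 0 set by vehicle wells and 1 by blank wells, after 72 hours of two-drug dosing of cells plated in 1536-well plates.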

[2] = tested on: SNU-449 (Hepatocellular Carcinoma)
Outline: as §1

[3] = tested on: NCI-H524 (Small Cell Lung Carcinoma)
Outline: as §1

[4] = tested on: OV-56 (Ovarian Carcinoma)
Outline: as §1

[5] = tested on: HuCCT1 (Biliary Tract Carcinoma)
Outline: as §1

[6] = tested on: ALL-PO (B-Lymphoblastic Leukemia)
Outline: as §1

[7] = tested on: YAPC (Pancreatic Carcinoma)
Outline: as §1

[8] = tested on: BE-13 (T-Lymphoblastic Leukemia)
Outline: as §1

[9] = tested on: ESS-1 (Other Solid Carcinomas)
Outline: as §1

[10] = tested on: NCI-H2052 (Mesothelioma)
Outline: as §1

[11] = tested on: TGBC1TKB (Biliary Tract Carcinoma)
Outline: as §1

[12] = tested on: WSU-NHL (B-Cell Non-Hodgkin's Lymphoma)
Outline: as §1

[13] = tested on: LOXIMVI (Melanoma)
Outline: as §1

[14] = tested on: NCI-H2722 (Mesothelioma)
Outline: as §1

[15] = tested on: SNU-16 (Gastric Carcinoma)
Outline: as §1

[16] = tested on: LNZTA3WT4 (Low Grade Glioma)
Outline: as §1

[17] = tested on: HuH-7 (Hepatocellular Carcinoma)
Outline: as §1

[18] = tested on: NCI-H1568 (Lung Adenocarcinoma)
Outline: as §1

[19] = tested on: OVCAR-5 (Ovarian Carcinoma)
Outline: as §1

[20] = tested on: SW1710 (Bladder Carcinoma)
Outline: as §1

Structure (SMILES)	combination Emax [1]	combination Emax [2]	combination Emax [3]	combination Emax [4]	combination Emax [5]	combination Emax [6]	combination Emax [7]	combination Emax [8]	combination Emax [9]	combination Emax [10]	combination Emax [11]	combination Emax [12]	combination Emax [13]	combination Emax [14]	combination Emax [15]	combination Emax [16]	combination Emax [17]	combination Emax [18]	combination Emax [19]	combination Emax [20]
Cn1cnc2c(F)c(Nc3ccc(Br)cc3Cl)c(C(=O)NOCCO)cc21 [Selumetinib] + C[C@@H]1COCCN1C2=NC(=NC(=C2)C3(CC3)[S@](=N)(=O)C)C4=C5C=CNC5=NC=C4 [AZD6738] (first compound max 10 µM, 7x7, partner max 10 µM)	0.648	0.111	0.681	0.29	0.703	0.96	0.22	0.784	0.953	0.395	0.347	0.817	0.778	0.277	0.966	0.712	0.374	0.574	0.671	0.26
CC1(C)CCC(CN2CCN(c3ccc(C(=O)NS(=O)(=O)c4ccc(NCC5CCOCC5)c([N+](=O)[O-])c4)c(Oc4cnc5[nH]ccc5c4)c3)CC2)=C(c2ccc(Cl)cc2)C1 [Venetoclax] + Cc1cc2ncnn2cc1Nc1ncc2c(n1)n(C1CCOCC1)c(=O)n2C [AZD7648] (first compound max 1 µM, 7x7, partner max 10 µM)	0.597	0.229	0.308	0.15	0.284	0.613	0.2	0.529	0.886	0.381	0.297	0.869	0.254	0.25	0.223	0.385	0.221	0.135	0.339	0.248
CC1(C)CCC(CN2CCN(c3ccc(C(=O)NS(=O)(=O)c4ccc(NCC5CCOCC5)c([N+](=O)[O-])c4)c(Oc4cnc5[nH]ccc5c4)c3)CC2)=C(c2ccc(Cl)cc2)C1 [Venetoclax] + C[C@@H](Nc1cc(F)cc(F)c1)c1cc(C(=O)N(C)C)cc2c(=O)cc(N3CCOCC3)oc12 [AZD8186] (first compound max 1 µM, 7x7, partner max 3 µM)	0.558	0.172	0.535	0.0859	0.185	0.703	0.0625	0.375	0.814	0.217	0.526	1	0.129	0.17	0.251	0.185	0.144	0.0798	0.214	0.194
Cc1c2c(nn1C)CSCc1cc(n(C)n1)CSc1cc(c3ccccc3c1)OCCCc1c(C(=O)O)n(C)c3c-2c(Cl)ccc13 [AZD5991] + Cn1cnc2c(F)c(Nc3ccc(Br)cc3Cl)c(C(=O)NOCCO)cc21 [Selumetinib] (first compound max 1 µM, 7x7, partner max 3 µM)	0.671	0.246	0.336	0.189	0.508	1	0.209	0.449	0.224	0.314	0.187	0.934	0.513	0.238	0.989	0.237	0.301	0.563	0.543	0.256
CN(CCO)CC[C@H](CSc1ccccc1)Nc1ccc(S(=O)(=O)NC(=O)c2ccc(N3CCC([C@@H](O)c4ccccc4-c4ccc(Cl)cc4)CC3)cc2)cc1S(=O)(=O)C(F)(F)F [AZD4320] + CN(C)CCCOc1ccc(-c2ccc3ncc4c(c3c2)n(C2CCOCC2)c(=O)n4C)cn1 [AZD0156] (first compound max 1 µM, 7x7, partner max 1 µM)	0.929	0.15	0.814	0.153	0.251	0.97	0.129	0.977	0.478	0.201	0.492	0.866	0.366	0.285	0.322	0.0987	0.154	0.313	0.164	0.117
NC1(C(=O)N[C@@H](CCO)c2ccc(Cl)cc2)CCN(c2ncnc3[nH]ccc23)CC1 [Capivasertib] + Cn1cnc2c(F)c(Nc3ccc(Br)cc3Cl)c(C(=O)NOCCO)cc21 [Selumetinib] (first compound max 10 µM, 7x7, partner max 10 µM)	0.469	0.205	0.303	0.398	0.717	0.726	0.346	0.276	0.526	0.443	0.475	0.92	0.782	0.336	0.461	0.445	0.45	0.229	0.69	0.409
